Molecules are shown by their SMILES. Active and inactive are the calls of the source. No cut-off for these calls is given here.

Assay [1] has as its system Pseudomonas aeruginosa. As to the kind of experiment: Antimicrobial activity against Pseudomonas aeruginosa assessed as inhibition of planktonic growth at 80 uM at 25 degC after 24 hrs. The class given is functional, organism-based.
Assay [2] deals with Pseudomonas aeruginosa. As to the kind of experiment: Antibiofilm activity in Pseudomonas aeruginosa assessed as inhibition of biofilm formation at 25 degC after 24 hrs. The class given is functional, organism-based.
Assay [3] relates to Salmonella typhimurium. As to the kind of experiment: Antibiofilm activity in Salmonella Typhimurium ATCC 14028 assessed as inhibition of biofilm formation at 25 degC after 24 hrs. The class given is functional, organism-based, Salmonella enterica subsp. enterica serovar Typhimurium. The conditions noted are these: Salmonella enterica, ATCC 14028, 24 h.
For assay [4], the system named is Pseudomonas aeruginosa. As to the kind of experiment: Antimicrobial activity against Pseudomonas aeruginosa assessed as inhibition of planktonic growth at 5 uM at 25 degC after 24 hrs. Format: functional, organism-based.
Assay [5] relates to Pseudomonas aeruginosa. As to the kind of experiment: Antimicrobial activity against Pseudomonas aeruginosa assessed as inhibition of planktonic growth at 40 uM at 25 degC after 24 hrs. The class given is functional, organism-based.
The subject of assay [6] is Salmonella typhimurium. As to the kind of experiment: Antimicrobial activity against Salmonella Typhimurium ATCC 14028 assessed as inhibition of planktonic growth at 4 uM at 25 degC after 24 hrs. The class given is functional, organism-based. Conditions: Salmonella enterica subsp. enterica serovar Typhimurium.
The subject of assay [7] is Salmonella typhimurium. As to the kind of experiment: Antimicrobial activity against Salmonella Typhimurium ATCC 14028 assessed as inhibition of planktonic growth at 80 uM at 25 degC after 24 hrs. The class given is functional, organism-based. The conditions noted are these: Salmonella enterica subsp. enterica serovar Typhimurium.
The test system of assay [8] is Salmonella typhimurium. As to the kind of experiment: Antimicrobial activity against Salmonella Typhimurium ATCC 14028 assessed as inhibition of planktonic growth at 20 uM at 25 degC after 24 hrs. Format: functional, organism-based. The conditions noted are these: Salmonella enterica subsp. enterica serovar Typhimurium.
For assay [9], the system named is Salmonella typhimurium. As to the kind of experiment: Antimicrobial activity against Salmonella Typhimurium ATCC 14028 assessed as inhibition of planktonic growth at 10 uM at 25 degC after 24 hrs. Format: functional, organism-based. Conditions: Salmonella enterica subsp. enterica serovar Typhimurium.
Assay [10] relates to Salmonella typhimurium. As to the kind of experiment: Antimicrobial activity against Salmonella Typhimurium ATCC 14028 assessed as inhibition of planktonic growth at 40 uM at 25 degC after 24 hrs. The class given is functional, organism-based. The conditions noted are these: Salmonella enterica subsp. enterica serovar Typhimurium.
Assay [11] has as its system Pseudomonas aeruginosa. As to the kind of experiment: Antimicrobial activity against Pseudomonas aeruginosa assessed as inhibition of planktonic growth at 10 uM at 25 degC after 24 hrs. The class given is functional, organism-based.

In the case of `Nc1ncc(-c2ccccc2)n1C1CCCCC1`, the inhibition result in the assay on Pseudomonas aeruginosa [1], in the assay on Pseudomonas aeruginosa [4] and with Pseudomonas aeruginosa [5] was “inactive” each time. Also, the IC50 in the assay on Pseudomonas aeruginosa [2] was determined as 4.6 µM; in the assay on Salmonella typhimurium [3] it was 85.2 µM.
Take `CCCCCn1c(-c2ccccc2)cnc1N`: the inhibition result with Salmonella typhimurium [6], with Salmonella typhimurium [8], with Pseudomonas aeruginosa [1], in the assay with Salmonella typhimurium [9], with Pseudomonas aeruginosa [4] and in the assay with Salmonella typhimurium [10] was “inactive” each time. In addition, the inhibition entry in the assay on Pseudomonas aeruginosa [5] and with Pseudomonas aeruginosa [11] was “inactive” in each case. Besides, the inhibition entry with Salmonella typhimurium [7] is “Active”. For the same compound, the values for the IC50 in the assay on Pseudomonas aeruginosa [2] and in the assay on Salmonella typhimurium [3] were 2.1 µM and 48.4 µM, respectively.
With `Nc1ncc(-c2ccccc2)n1C1CCCCCCC1`, the inhibition result with Salmonella typhimurium [7] was “Active”. The inhibition result in the assay with Salmonella typhimurium [8], in the assay with Pseudomonas aeruginosa [1], in the assay with Salmonella typhimurium [9], with Pseudomonas aeruginosa [4] and in the assay with Pseudomonas aeruginosa [5] was “inactive” each time. The IC50 was 4.5 µM with Pseudomonas aeruginosa [2] and 40.5 µM with Salmonella typhimurium [3].
Regarding `CCCCCCCCCCCCCCn1c(-c2ccc(Cl)cc2)cnc1N`, the inhibition result in the assay with Pseudomonas aeruginosa [1], in the assay on Pseudomonas aeruginosa [4] and with Pseudomonas aeruginosa [5] was “inactive” in each case. For the same compound, the values for the IC50 with Pseudomonas aeruginosa [2] and in the assay on Salmonella typhimurium [3] were 19.1 µM and 453 µM, respectively.
For `CCCCCCCCCCCCCCn1c(-c2ccccc2)cnc1N`, the inhibition result in the assay on Salmonella typhimurium [7], with Salmonella typhimurium [8], with Pseudomonas aeruginosa [1], with Salmonella typhimurium [9], in the assay with Salmonella typhimurium [10] and with Pseudomonas aeruginosa [5] was “inactive” in each case. Further, the inhibition result with Pseudomonas aeruginosa [11] was “inactive”. In addition, the IC50 in the assay on Pseudomonas aeruginosa [2] worked out at 9.8 µM; with Salmonella typhimurium [3], 8.7 µM.
Take `CCCCCCCCCCCCn1c(-c2ccccc2)cnc1N`: the inhibition entry in the assay with Salmonella typhimurium [6], with Pseudomonas aeruginosa [1], in the assay on Pseudomonas aeruginosa [5] and in the assay with Pseudomonas aeruginosa [11] was “inactive” in each case. Also, the inhibition entry in the assay with Salmonella typhimurium [8] and in the assay on Salmonella typhimurium [9] was “Active” in each case. The IC50 with Pseudomonas aeruginosa [2] is 12.8 µM; with Salmonella typhimurium [3] it was 7.1 µM.
As to `CCCCCCCCCCn1c(-c2ccc(-c3ccccc3)cc2)cnc1N`, the inhibition entry with Salmonella typhimurium [6], in the assay with Salmonella typhimurium [8], in the assay on Pseudomonas aeruginosa [1], in the assay on Pseudomonas aeruginosa [4], in the assay on Salmonella typhimurium [10] and in the assay on Pseudomonas aeruginosa [5] was “inactive” throughout. The IC50 in the assay with Pseudomonas aeruginosa [2] is more than 400 µM; in the assay with Salmonella typhimurium [3], 5.7 µM.
`Nc1ncc(-c2ccccc2)n1C1CCCCCC1`: the inhibition result with Pseudomonas aeruginosa [1], in the assay on Pseudomonas aeruginosa [5] and in the assay with Pseudomonas aeruginosa [11] was “inactive” each time. In addition, the IC50 was found to be 14.2 µM in the assay with Pseudomonas aeruginosa [2] and 26.9 µM with Salmonella typhimurium [3].
As to `Nc1ncc(-c2ccc(Cl)cc2)n1C1CCC1`, the inhibition entry with Salmonella typhimurium [7], in the assay on Pseudomonas aeruginosa [1] and with Salmonella typhimurium [10] was “Active” in each case. The values for the IC50 in the assay on Pseudomonas aeruginosa [2] and with Salmonella typhimurium [3] were 6 µM and 11.6 µM, respectively. Also, the inhibition entry in the assay on Salmonella typhimurium [9], in the assay on Pseudomonas aeruginosa [4] and in the assay on Pseudomonas aeruginosa [5] was “inactive” in each case.
